Values after ≈ are worked out from the molar mass of the structure shown.
How the values were obtained:
Assay in all cases: Broth microdilution (BMD) MIC
Assay type in all cases: cell-based
MSSA U148267 = conditions: Staphylococcus aureus, read-out: Oritavancin BMD MIC
Text: (§1) To date, only the broth microdilution (BMD) minimal inhibitory concentration (MIC) test is a reference method accepted by the Clinical Laboratory Standards Institute (CLSI) for use in determining the susceptibility of a bacterial isolate to oritavancin (Methods for Dilution Antimicrobial Susceptibility Tests for Bacteria That Grow Aerobically; Approved Standard, CLSI document M7-A8, 8th ed. Clinical and Laboratory Standards Institute, Wayne, Pa. 2009; Performance Standards for Antimicrobial Susceptibility Testing; Eighteenth Informational Supplement, CLSI document M100-S18, 7th ed. Clinical and Laboratory Standards Institute, Wayne, Pa. 2008).

MRSA U784439 = conditions: Staphylococcus aureus, read-out: Oritavancin BMD MIC
Text: as §1

MRSA U933237 = conditions: Staphylococcus aureus, read-out: Oritavancin BMD MIC
Text: as §1

MRSA V406957 = conditions: Staphylococcus aureus, read-out: Oritavancin BMD MIC
Text: as §1

MSSA S815247 = conditions: Staphylococcus aureus, read-out: Oritavancin BMD MIC
Text: as §1

MSSA U781969 = conditions: Staphylococcus aureus, read-out: Oritavancin BMD MIC
Text: as §1

MRSA U206056 = conditions: Staphylococcus aureus, read-out: Oritavancin BMD MIC
Text: as §1

MSSA S815246 = conditions: Staphylococcus aureus, read-out: Oritavancin BMD MIC
Text: as §1

hVISA NRS2 = conditions: Staphylococcus aureus, read-out: Oritavancin BMD MIC
Text: as §1

MSSA T972018 = conditions: Staphylococcus aureus, read-out: Oritavancin BMD MIC
Text: as §1

MSSA T811355 = conditions: Staphylococcus aureus, read-out: Oritavancin BMD MIC
Text: as §1

VISA Mu50 (ATCC 700699) = conditions: Staphylococcus aureus; VISA ATCC 700699 (Mu50); read-out: Oritavancin BMD MIC
Text: as §1

MRSA NRS121 = conditions: Staphylococcus aureus, read-out: Oritavancin BMD MIC
Text: as §1

MRSA Q670505 = conditions: Staphylococcus aureus, read-out: Oritavancin BMD MIC
Text: as §1

MRSA Q141067 = conditions: Staphylococcus aureus, read-out: Oritavancin BMD MIC
Text: as §1

MRSA T998528 = conditions: Staphylococcus aureus, read-out: Oritavancin BMD MIC
Text: as §1

MRSA V257345 = conditions: Staphylococcus aureus, read-out: Oritavancin BMD MIC
Text: as §1

MSSA Q141066 = conditions: Staphylococcus aureus, read-out: Oritavancin BMD MIC
Text: as §1

MSSA U933236 = conditions: Staphylococcus aureus, read-out: Oritavancin BMD MIC
Text: as §1

MSSA V406985 = conditions: Staphylococcus aureus, read-out: Oritavancin BMD MIC
Text: as §1

MRSA NRS121-ORI^RS = conditions: Staphylococcus aureus; MRSA NRS121-ORI^RS (oritavancin reduced-susceptibility isolate)
Text: as §1

VISA NRS402 = conditions: Staphylococcus aureus, read-out: Oritavancin BMD MIC
Text: as §1

VISA NRS3 = conditions: Staphylococcus aureus, read-out: Oritavancin BMD MIC
Text: as §1

MSSA T759545 = conditions: Staphylococcus aureus, read-out: Oritavancin BMD MIC
Text: as §1

MSSA ATCC 29213 = conditions: Staphylococcus aureus, read-out: Oritavancin BMD MIC
Text: as §1

MRSA V288615 = conditions: Staphylococcus aureus, read-out: Oritavancin BMD MIC
Text: as §1

MRSA U260847 = conditions: Staphylococcus aureus, read-out: Oritavancin BMD MIC
Text: as §1

MRSA Q670607 = conditions: Staphylococcus aureus, read-out: Oritavancin BMD MIC
Text: as §1

MRSA T998608 = conditions: Staphylococcus aureus, read-out: Oritavancin BMD MIC
Text: as §1

MRSA NRS123 = conditions: Staphylococcus aureus, read-out: Oritavancin BMD MIC
Text: as §1

hVISA NRS36 = conditions: Staphylococcus aureus, read-out: Oritavancin BMD MIC
Text: as §1

MRSA NRS123-ORI^RS = conditions: Staphylococcus aureus; MRSA NRS123-ORI^RS (oritavancin reduced-susceptibility isolate)
Text: as §1

MRSA ATCC 33591 = conditions: Staphylococcus aureus, read-out: Oritavancin BMD MIC
Text: as §1

CN[C@H](CC(C)C)C(=O)N[C@H]1C(=O)N[C@@H](CC(N)=O)C(=O)N[C@H]2C(=O)N[C@H]3C(=O)N[C@H](C(=O)N[C@H](C(=O)O)c4cc(O)cc(O)c4-c4cc3ccc4O)[C@H](O[C@H]3C[C@](C)(N)[C@@H](O)[C@H](C)O3)c3ccc(c(Cl)c3)Oc3cc2cc(c3O[C@@H]2O[C@H](CO)[C@@H](O)[C@H](O)[C@H]2O[C@H]2C[C@](C)(NCc3ccc(-c4ccc(Cl)cc4)cc3)[C@@H](O)[C@H](C)O2)Oc2ccc(cc2Cl)[C@H]1O [oritavancin, N-(4-(4-chlorophenyl)benzyl)A82846B]
MIC (MSSA U148267): 0.015 µg/mL (≈ 0.00837 µM) | MIC (MRSA U784439): 0.03 µg/mL (≈ 0.0167 µM) | MIC (MRSA U933237): 0.12 µg/mL (≈ 0.0669 µM) | MIC (MRSA V406957): 0.12 µg/mL (≈ 0.0669 µM) | MIC (MSSA S815247): 0.015 µg/mL (≈ 0.00837 µM) | MIC (MSSA U781969): 0.03 µg/mL (≈ 0.0167 µM) | MIC (MRSA U206056): 0.25 µg/mL (≈ 0.139 µM) | MIC (MSSA S815246): 0.03 µg/mL (≈ 0.0167 µM) | MIC (hVISA NRS2): 0.25 µg/mL (≈ 0.139 µM) | MIC (MSSA T972018): 0.5 µg/mL (≈ 0.279 µM) | MIC (MSSA T811355): 0.03 µg/mL (≈ 0.0167 µM) | MIC (VISA Mu50 (ATCC 700699)): 1 µg/mL (≈ 0.558 µM) | MIC (MRSA NRS121): 0.06 µg/mL (≈ 0.0335 µM) | MIC (MRSA Q670505): 0.25 µg/mL (≈ 0.139 µM) | MIC (MRSA Q141067): 0.015 µg/mL (≈ 0.00837 µM) | MIC (MRSA T998528): 0.015 µg/mL (≈ 0.00837 µM) | MIC (MRSA V257345): 0.12 µg/mL (≈ 0.0669 µM) | MIC (MSSA Q141066): 0.03 µg/mL (≈ 0.0167 µM) | MIC (MSSA U933236): 0.06 µg/mL (≈ 0.0335 µM) | MIC (MSSA V406985): 0.12 µg/mL (≈ 0.0669 µM) | MIC (MRSA NRS121-ORI^RS): 0.5 µg/mL (≈ 0.279 µM) | MIC (VISA NRS402): 1 µg/mL (≈ 0.558 µM) | MIC (VISA NRS3): 1 µg/mL (≈ 0.558 µM) | MIC (MSSA T759545): 0.015 µg/mL (≈ 0.00837 µM) | MIC (MSSA ATCC 29213): 0.06 µg/mL (≈ 0.0335 µM) | MIC (MRSA V288615): 0.03 µg/mL (≈ 0.0167 µM) | MIC (MRSA U260847): 0.06 µg/mL (≈ 0.0335 µM) | MIC (MRSA Q670607): 0.03 µg/mL (≈ 0.0167 µM) | MIC (MRSA T998608): 0.03 µg/mL (≈ 0.0167 µM) | MIC (MRSA NRS123): 0.03 µg/mL (≈ 0.0167 µM) | MIC (hVISA NRS36): 1 µg/mL (≈ 0.558 µM) | MIC (MRSA NRS123-ORI^RS): 0.25 µg/mL (≈ 0.139 µM) | MIC (MRSA ATCC 33591): 0.06 µg/mL (≈ 0.0335 µM)

From US8815535B2, “Disk diffusion assay for oritavancin” (The Medicines Company, priority 2011, dated 2014)
